Here are results for 9 compounds from article PMC3609778, “Truncated and Helix-Constrained Peptides with High Affinity and Specificity for the cFos Coiled-Coil of AP-1” (PLoS ONE, 2013).

Where a SMILES comes first, the peptide text is derived from it. Bridges are numbered along the chain shown (N, C = ends). [ ]: non-standard residue; d: D form. Cha = N[C@@H](CC1CCCCC1)C(=O)O

In one data set the test system is cJun. Kind of data set: CD spectra and thermal denaturation of peptide-cJun mixtures (specificity). The conditions noted are these: equimolar with cJun. In kind it is binding. As for the experimental part:
To establish if the truncated and constrained peptides retained the interaction specificity of the JunWCANDI parent peptide, peptides capable of interacting with cFos were also incubated at equimolar concentrations with cJun and monitored via CD spectra. […] In addition, a dimer exchange experiment was performed for the most helical peptide 24. Spectra for a cJun-peptide solution and a cFos solution should, upon mixing, generate an averaged spectrum if there was no dimer exchange. […] Spectra for both mixtures can be superimposed (Figure S4).
Supplementary file pone.0059415.s002.tiff: Figure S2 Raw thermal melting data for homo and heterodimeric complexes with cJun for constrained peptides 1 , 2 , 8 , 9, 10 , 11, 12, 17, 20, 22, and 24 . […] (TIFF) Click here for additional data file.
Supplementary file pone.0059415.s003.tiff: Figure S3 CD spectra as MRE both in isolation and as a mixture with cJun. From these raw data it is also clear that no interaction is occurring between constrained peptides and cJun. Rather, specta appear as averages of their homodimeric components (i.e. superimpose with the homomeric averages). We observe no heteromeric helical signal (red) that exceeds the average (black dotted line) of cJun (black) and the constrained peptide (blue), that would be anticipated for a non-interacting pair. (TIFF) Click here for additional data file.
Supplementary file pone.0059415.s005.doc: Table S1 Helical Data obtained via Circular Dichroism. Shown are A) homo and B) heteromeric samples. […] A ratio higher than 1 is generally indicated evidence that a coiled coil has formed, while a ratio of less than 0.9 is taken to indicate the presence of isolated helices. Shown in column two are the calculated fractional helicities taken from the Molar Residue Ellipticity at […]. Fraction helicity (ƒH) can be calculated as ƒH = (θ222−θc)/(θ222∞−θc) where θ222∞ = (−44000+250*T)*(1−k/Nr) and θc = 2220–(53*T). […] Measured helicity for the original JunWCANDI peptide and for the template on which the hydrocarbon constraints have been introduced. […]

The nature of data set [1]: Circular dichroism helicity of peptide in isolation (homotypic). In kind it is physicochemical. To be noted: peptide in isolation; for Homotypic Ɵ222/208 (20ºC): CD ratio, 20 °C; for Fraction helical (ƒH), homotypic: from CD molar residue ellipticity at 222 nm, 20°C, 150 µM, pH 7. As for the experimental part: (§1) Circular dichroism (CD) spectroscopy was conducted with an Applied Photophysics Chirascan CD spectroploarimeter (Leatherhead, U.K.) using a 200 µL sample in a CD cell with a 1 mm path length (Hellma, Müllheim Germany). Samples contained 150 µM total peptide concentration suspended in 10 mM potassium phosphate and 100 mM potassium fluoride at pH 7. The CD spectra of the homodimeric and heterodimeric complexes were scanned between 300 nm and 190 nm at 20°C (for both pre- and post-melt samples to check for reversibility of unfolding) and at −8°C to assess helical levels and coiled-coil structure (see Figure 4).
(§2) Supplementary file pone.0059415.s005.doc: Table S1 Helical Data obtained via Circular Dichroism. Shown are A) homo and B) heteromeric samples. […] A ratio higher than 1 is generally indicated evidence that a coiled coil has formed, while a ratio of less than 0.9 is taken to indicate the presence of isolated helices. Shown in column two are the calculated fractional helicities taken from the Molar Residue Ellipticity at […]. Fraction helicity (ƒH) can be calculated as ƒH = (θ222−θc)/(θ222∞−θc) where θ222∞ = (−44000+250*T)*(1−k/Nr) and θc = 2220–(53*T). In these equations the wavelength dependent constant k = 2.4 (at 222 nm), Nr = the number of residues, and T = 20 degrees Celsius (293 K). The 222/208 ratio is used to provide evidence on whether the helices are monomeric or are adopting a quaternary structure. Measured helicity for the original JunWCANDI peptide and for the template on which the hydrocarbon constraints have been introduced. […] The N- and C-capping motifs have been removed for the constrained since they are considered to be largely redundant upon their introduction. (DOC) Click here for additional data file.
In general terms: CD spectra are sensitive to the conformation of chiral molecules.

For a further data set, the target named is cFos (Homo sapiens, UniProt P01100). Kind of data set: Circular dichroism spectra of peptide-cFos mixtures. In kind it is binding. To be noted: mixture with cFos. On the procedure: as §1
cFos, sequence (P01100 whole entry): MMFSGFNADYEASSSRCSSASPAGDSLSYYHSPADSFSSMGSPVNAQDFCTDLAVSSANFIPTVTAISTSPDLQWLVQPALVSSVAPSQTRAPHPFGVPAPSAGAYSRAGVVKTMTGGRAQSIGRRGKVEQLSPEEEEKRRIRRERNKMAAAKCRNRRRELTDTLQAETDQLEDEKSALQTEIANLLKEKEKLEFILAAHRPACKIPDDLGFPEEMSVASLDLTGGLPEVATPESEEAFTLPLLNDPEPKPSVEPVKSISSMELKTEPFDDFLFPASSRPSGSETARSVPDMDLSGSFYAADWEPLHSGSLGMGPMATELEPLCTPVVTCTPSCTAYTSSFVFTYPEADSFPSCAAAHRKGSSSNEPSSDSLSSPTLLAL
Thermal denaturation data and spectra for the cFos homotypic complex (black), helix constrained peptide (blue), and heteromeric complex (red) were recorded using 200 µL of sample at 150µM total peptide concentration (Figure 4, Figure S1). Next, 100 µL of each solution was mixed and the spectra taken such that the final total peptide concentration was also 150 µM. More experimental procedures can be found in File S1.
as §2

The next data set can be described thus: circular dichroism. To be noted: 10 mM K phosphate, 100 mM KF; pH 7; 20 °C; 150 uM.

For the compound `CC[C@H](C)[C@H](NC(=O)[C@H](Cc1c[nH]cn1)NC(=O)[C@@H]1CC(=O)NCCCC[C@H](NC(=O)[C@H](C)NC(=O)[C@H](CCCCN)NC(=O)[C@H](CO)NC(=O)[C@H](CCCNC(=N)N)NC(=O)[C@H](CC2CCCCC2)NC(=O)[C@@H]2CC(=O)NCCCC[C@H](NC(=O)[C@H](CCCCN)NC(=O)[C@H](CC(C)C)NC(C)=O)C(=O)N[C@@H](CCC(=O)O)C(=O)N[C@@H]([C@@H](C)CC)C(=O)N[C@@H](Cc3ccc(O)cc3)C(=O)N2)C(=O)N[C@@H](CCSC)C(=O)N[C@@H](CC(C)C)C(=O)N[C@@H](CCCNC(=N)N)C(=O)N1)C(=O)N[C@@H](C)C(=O)N[C@@H](CCC(N)=O)C(=O)N[C@@H](CC(C)C)C(N)=O` [compound 17] (Ac-LKKEIYD[Cha]RSKAKMLRDHIAQL-NH2; lactam 3-7, 13-17), in the data set on cJun, the “interaction with cJun (in words)” value is “none of the peptides form a stable interaction with cJun”. In data set [1], the “Homotypic Ɵ222/208 (20ºC)” value turned out to be 0.91 and the “Fraction helical (ƒH), homotypic” value is 0.42. On cFos (CD ratio, 20 °C), the “Peptide-cFos Ɵ222/208 (20ºC)” value is on record as 0.90. Further, the “Peptide-cFos Fraction helical (ƒH)” value at cFos (CD 222 nm, 20°C, 150 µM total peptide) was determined as 0.40.

In the case of `CC[C@H](C)[C@H](NC(=O)[C@H](Cc1c[nH]cn1)NC(=O)[C@@H]1CC(=O)NCCCC[C@H](NC(=O)[C@H](C)NC(=O)[C@H](CCCCN)NC(=O)[C@H](CO)NC(=O)[C@H](CCCNC(=N)N)NC(=O)[C@H](CC(C)C)NC(=O)[C@@H]2CC(=O)NCCCC[C@H](NC(=O)[C@H](CCCNC(=N)N)NC(=O)[C@H](CC(C)C)NC(C)=O)C(=O)N[C@@H](CCC(=O)O)C(=O)N[C@@H]([C@@H](C)CC)C(=O)N[C@@H](Cc3ccc(O)cc3)C(=O)N2)C(=O)N[C@@H](CCSC)C(=O)N[C@@H](CC(C)C)C(=O)N[C@@H](CCCNC(=N)N)C(=O)N1)C(=O)N[C@@H](C)C(=O)N[C@@H](CCC(N)=O)C(=O)N[C@@H](CC(C)C)C(N)=O` (Ac-LRKEIYDLRSKAKMLRDHIAQL-NH2; lactam 3-7, 13-17), the helicity in “circular dichroism” worked out at 0.34 frac.

In the case of `CC[C@H](C)[C@H](NC(=O)[C@H](Cc1c[nH]cn1)NC(=O)[C@@H]1CC(=O)NCCCC[C@H](NC(=O)[C@H](C)NC(=O)[C@H](CCCCN)NC(=O)[C@H](CO)NC(=O)[C@H](CCCNC(=N)N)NC(=O)[C@H](CC(C)C)NC(=O)[C@@H]2CC(=O)NCCCC[C@H](NC(=O)[C@H](CCCCN)NC(=O)[C@H](CC(C)C)NC(C)=O)C(=O)N[C@@H](CCC(=O)O)C(=O)N[C@@H](CC(N)=O)C(=O)N[C@@H](Cc3ccc(O)cc3)C(=O)N2)C(=O)N[C@@H](CCSC)C(=O)N[C@@H](CC(C)C)C(=O)N[C@@H](CCCNC(=N)N)C(=O)N1)C(=O)N[C@@H](C)C(=O)N[C@@H](CCC(N)=O)C(=O)N[C@@H](CC(C)C)C(N)=O` (Ac-LKKENYDLRSKAKMLRDHIAQL-NH2; lactam 3-7, 13-17), in the data set “circular dichroism”, the helicity was determined as 0.33 frac.

The compound `CC[C@H](C)[C@H](NC(=O)[C@H](Cc1c[nH]cn1)NC(=O)[C@@H]1CC(=O)NCCCC[C@H](NC(=O)[C@H](C)NC(=O)[C@H](CCCCN)NC(=O)[C@H](CO)NC(=O)[C@H](CCCNC(=N)N)NC(=O)[C@H](CC(C)C)NC(=O)[C@@H]2CC(=O)NCCCC[C@H](NC(=O)[C@H](CCCCN)NC(=O)[C@H](CC(C)C)NC(C)=O)C(=O)N[C@@H](CCC(=O)O)C(=O)N[C@@H]([C@@H](C)CC)C(=O)N[C@@H](Cc3ccc(O)cc3)C(=O)N2)C(=O)N[C@@H](CCSC)C(=O)N[C@@H](CC(C)C)C(=O)N[C@@H](CCCNC(=N)N)C(=O)N1)C(=O)N[C@@H](C)C(=O)N[C@@H](CCC(N)=O)C(=O)N[C@@H](CC(C)C)C(N)=O` (Ac-LKKEIYDLRSKAKMLRDHIAQL-NH2; lactam 3-7, 13-17) showed a helicity in the data set “circular dichroism” of 0.63 frac.

The compound `CC[C@H](C)[C@@H]1NC(=O)[C@H](Cc2c[nH]cn2)NC(=O)[C@@H](NC(=O)[C@H](CCCNC(=N)N)NC(=O)[C@H](CC(C)C)NC(=O)[C@H](CCSC)NC(=O)[C@H](CC(N)=O)NC(=O)[C@H](C)NC(=O)[C@H](CCCCN)NC(=O)[C@H](CO)NC(=O)[C@H](CCCNC(=N)N)NC(=O)[C@H](CC(C)C)NC(=O)[C@@H]2CC(=O)NCCCC[C@H](NC(=O)[C@H](CCCCN)NC(=O)[C@H](CC(C)C)NC(C)=O)C(=O)N[C@@H](CCC(=O)O)C(=O)N[C@@H]([C@@H](C)CC)C(=O)N[C@@H](Cc3ccc(O)cc3)C(=O)N2)CCCCNC(=O)C[C@@H](C(=O)N[C@@H](CC(C)C)C(N)=O)NC(=O)[C@H](C)NC1=O` (Ac-LKKEIYDLRSKANMLRKHIADL-NH2; lactam 3-7, 17-21) yielded a helicity in the data set “circular dichroism” of 0.57 frac.

“Ac-ASTDTLQAETDQLEDEKYALQTEIANLLKEKEKLGAP-NH2 [cFos]”: in data set [1], the “Homotypic Ɵ222/208 (20ºC)” value was 0.59 and the “Fraction helical (ƒH), homotypic” value is 0.20.

`CC[C@H](C)[C@@H]1NC(=O)[C@H](CCC(=O)O)NC(=O)[C@@H](NC(=O)[C@H](CCCCN)NC(=O)[C@H](CC(C)C)NC(C)=O)CCCCNC(=O)C[C@@H](C(=O)N[C@@H](CC(C)C)C(=O)N[C@@H](CCCNC(=N)N)C(=O)N[C@H]2CCCCNC(=O)C[C@@H](C(=O)N[C@@H](CC(C)C)C(=O)N[C@@H](CCCNC(=N)N)C(=O)N[C@@H](CCC(=O)O)C(=O)N[C@@H](Cc3c[nH]cn3)C(N)=O)NC(=O)[C@H](CCCCN)NC(=O)[C@H](C)NC(=O)[C@H](CCCCN)NC2=O)NC(=O)[C@H](Cc2ccc(O)cc2)NC1=O` (Ac-LKKEIYDLRKKAKDLREH-NH2; lactam 3-7, 10-14) yielded a helicity in “circular dichroism” of 0.39 frac.

For `CC[C@H](C)[C@H](NC(C)=O)C(=O)N[C@H]1CCCCNC(=O)C[C@@H](C(=O)N[C@@H](CCCCN)C(=O)N[C@@H](C)C(=O)N[C@H]2CCCCNC(=O)C[C@@H](C(=O)N[C@@H](Cc3c[nH]cn3)C(=O)N[C@H](C(=O)N[C@@H](C)C(=O)N[C@@H](CCC(N)=O)C(=O)N[C@@H](CC(C)C)C(N)=O)[C@@H](C)CC)NC(=O)[C@H](CCCNC(=N)N)NC(=O)[C@H](CC(C)C)NC(=O)[C@H](CCSC)NC2=O)NC(=O)[C@H](CCCNC(=N)N)NC(=O)[C@H](CC(C)C)NC(=O)[C@H](CCC(=O)O)NC1=O` (Ac-IKELRDKAKMLRDHIAQL-NH2; lactam 2-6, 9-13), the helicity in the data set “circular dichroism” came out at 0.35 frac.

Turning to `CC[C@H](C)[C@@H]1NC(=O)[C@H](Cc2c[nH]cn2)NC(=O)[C@@H](NC(=O)[C@H](CCCNC(=N)N)NC(=O)[C@H](CC(C)C)NC(=O)[C@@H]2CC(=O)NCCCC[C@H](NC(=O)[C@H](CCCNC(=N)N)NC(=O)[C@H](CC(C)C)NC(=O)[C@@H]3CC(=O)NCCCC[C@H](NC(=O)[C@H](CCCCN)NC(=O)[C@H](CC(C)C)NC(C)=O)C(=O)N[C@@H](CCC(=O)O)C(=O)N[C@@H]([C@@H](C)CC)C(=O)N[C@@H](Cc4ccc(O)cc4)C(=O)N3)C(=O)N[C@@H](CCCCN)C(=O)N[C@@H](C)C(=O)N[C@@H](CC(N)=O)C(=O)N2)CCCCNC(=O)C[C@@H](C(=O)N[C@@H](CC(C)C)C(N)=O)NC(=O)[C@H](C)NC1=O` (Ac-LKKEIYDLRKKANDLRKHIADL-NH2; lactam 3-7, 10-14, 17-21), in the data set “circular dichroism”, the helicity was determined as 0.43 frac.
